Data set [1] relates to T. b. gambiense clinical isolates. Description: In vitro trypanocidal assay, clinical isolates. It counts as cell-based. The note with it: Trypanosoma brucei, six recent clinical isolates, data not shown. As for the experimental part: Parasites were cultured with or without the test article at a concentration of 3×10^4/mL in Minimal Essential Medium, according to Baltz et al., with the following modifications: 0.2 mM 2-mercaptoethanol, 1 mM Na-pyruvate, 0.5 mM hypoxanthine and 15% heat inactivated horse serum at 37°C in 5% CO2 in 96-well microtitre plates for 72 h. 10 µL of Alamar Blue was added for the final 3 h to determine viability. The assay was assessed by reading the fluorescence in each well at an excitation wavelength of 536 nm and at an emission wavelength of 588 nm. The IC50 values were calculated from the sigmoidal inhibition curves. For cytotoxicity, 4×10^4/mL L-6 rat skeletal myoblast cells were used, and incubations and assessments carried out as above.

The nature of data set [2]: Hepatocyte intrinsic clearance and metabolite profile. It counts as in vitro ADME, mouse. The note with it: male, CD-1, mouse, cryopreserved hepatocytes, 1 µM. How it is done: (§1) Fexinidazole was incubated with cryopreserved hepatocytes from male CD-1 mice, male Sprague Dawley rats, male beagle dogs, male cynomolgus monkeys, and from pooled white or African-American human donor samples (purchased commercially), at concentrations of 1 µM and 10 µM. […] The incubated samples were analyzed by LC-MS after extraction into acetonitrile.
(§2) A quality control analysis of fexinidazole was performed via 1H-NMR in DMSO and LC- […]
(§3) provided by the Swiss Tropical Institute (Basel, Switzerland).
(§4) Reagents and solvents were of analytical grade and obtained from Sigma-Aldrich (St. Louis, […]
(§5) Cryopreserved hepatocytes from the male CD1 mouse, lot CSI; male Sprague Dawley rat, lot LPL; male beagle dog, lot BWX; male cynomolgus monkey, lot EHH; and pooled human samples, lot MJI, were purchased from In Vitro Technologies Inc (Baltimore, Maryland, […]
(§6) 5.4. In vitro Incubations
(§7) On the day of the experiment a 10 mM stock solution of fexinidazole in DMSO was prepared and, within 3 hours, aliquots of this freshly prepared solution, after suitable dilution, were added to the incubation matrix, to reach fexinidazole final concentrations of 1 and 10 µM. The final percentage of DMSO was 0.01% in the incubation samples for the […]
(§8) On the day of experiment, the cryopreserved hepatocytes were thawed following the detailed instructions provided by the supplier.
(§9) The number of viable cells was determined using a Trypan Blue exclusion method.
(§10) 5.4.1. Intrinsic Clearance Study […]
(§11) µM with mouse, rat, dog, monkey and human hepatocytes (300000 cells/mL for the mouse and 1 million cells/mL for the other species) in a final incubation volume of 0.75 mL […]
(§12) Incubations were performed in duplicate in a 48-well plate under shaking. Sampling was performed using an automatic liquid handling system (Multiprobe II EX, Packard). At 0, 1, 5, 10, 15, 20, 30, 60 and 120 minutes, 50 µL aliquots of the incubates were taken, then 80 µL of ice-cold acetonitrile and 20 µL of 1 µM warfarin in acetonitrile (internal standard) were added, and samples centrifuged at 2000 rpm for 20 min. The supernatant was analyzed by LC-MS/MS. […]
(§13) the medium alone at t = 0 and 120 minutes.
(§14) For the determination of phase I and phase II activity of hepatocytes, 7-ethoxycoumarin (7-EC) 1 µM, and 7-hydroxycoumarin (7-HC) 30 µM were used as positive controls and incubated under the same conditions as fexinidazole. Aliquots of incubates were taken at 0, 10, 20, 30, 60 and 120 minutes and processed as fexinidazole samples.
(§15) 5.4.2. Metabolite Profile Study
(§16) For metabolite profiling, fexinidazole was incubated at a concentration of 10 µM with mouse, rat, dog, monkey and human hepatocytes (300000 cells/mL for the mouse and 1 million cells/mL for the other species) in a final incubation volume of 2 mL Leibovitz L-15 […]
(§17) Aliquots of the incubation samples were taken at t = 0, 30 and 120 minutes; the metabolism was stopped by the addition of an equal volume of cold acetonitrile and the samples centrifuged at 1500 rpm for 20 min. The supernatant was stored at -20°C until analysis. Control incubations were performed with the compound in the medium alone […]
(§18) 5.5. Analysis of Samples for Intrinsic Clearance Determination
(§19) The analysis of the samples for intrinsic clearance determination was performed by an LC-MS/MS method, using the following conditions:
(§20) HPLC Equipment and Conditions
(§21) HPLC system Agilent 1100 binary pump (Agilent, Palo Alto, USA)
(§22) Autosampler CTC Pal (Alfatech, San Jose, USA)
(§23) Analytical column Guard Column SB-C8 4.6 x 12.5 mm, 5 µm (Zorbax)
(§24) Column temperature ambient
(§25) Mobile phase A 10 mM ammonium formate pH 4.0: acetonitrile (95:5, v:v)
(§26) Mobile phase B 10 mM ammonium formate pH 4.0: acetonitrile (5:95, v:v) […]
(§27) Gradient conditions Step Total time (min) flow (µL/min) %A % B […]
(§28) MS Equipment and Conditions
(§29) Mass spectrometer API 4000 Triple Quadrupole (MDS-Sciex, Toronto, […]
(§30) Source Turbo Ion Spray (TIS)
(§31) Ion mode Positive for fexinidazole and 7-EC.
(§32) Negative for 7-HC, 7-HC sulphate and 7-HC glucuronide.

Test in data set [3]: as above
Format: in vitro ADME, dog. The note with it: male, beagle, dog, cryopreserved hepatocytes, 1 µM. How it is done: as §1, §2, §3, §4, §5, §6, §7, §8, §9, §10, §11, §12, §13, §14, §15, §16, §17, §18, §19, §20, §21, §22, §23, §24, §25, §26, §27, §28, §29, §30, §31, §32

Test in data set [4]: as above
It counts as in vitro ADME, human. To be noted: human, cryopreserved pooled hepatocytes, 1 µM. How it is done: as §1, §2, §3, §4, §5, §6, §7, §8, §9, §10, §11, §12, §13, §14, §15, §16, §17, §18, §19, §20, §21, §22, §23, §24, §25, §26, §27, §28, §29, §30, §31, §32

Details of data set [5]: method as in ref 3 (report no. 0275-2007-R). The note with it: single 50 mg/kg po, ref 3 (report no. 0275-2007-R); cited from earlier work.
On the set-up of data set [6]: method as in study 0339-2007. To be noted: 7-day repeated toxicity study, top dose 2000 mg/kg, ref study 0339-2007; cited from earlier work.

What is called IC50 is the point on the concentration scale where inhibition reaches its midpoint. A high value points to weaker potency in that assay. In general, half-life refers to how long it takes for the measured level to halve. As usually defined, the Cmax is the highest concentration seen after dosing.

Each structure is given as a SMILES string. In brackets after ≈: the same amount, converted by molar mass. Like-named read-outs stand apart in the source and are kept apart here.

In data set [1], `CSc1ccc(OCc2ncc([N+](=O)[O-])n2C)cc1` [Fexinidazole, 1-methyl-2-((p-(methylthio)phenoxy)methyl)-5-nitroimidazole] gave an IC50 of 0.3 to 0.93 µg/mL (≈ 1.07 to 3.33 µM). The values for the half-life at 1 µM in data set [2], in data set [3] and in data set [4] were 1.4 min, 1.1 min and 13 min, respectively. The CLint scaled at 1 µM in data set [2] (read-out: CLint in vitro) is above 3000 mL/min/kg; in data set [3] (read-out: CLint in vitro), above 3000 mL/min/kg; in data set [4] (read-out: CLint in vitro) it was 124 mL/min/kg. The values for the hepatocyte CLint at 1 µM in data set [2] (read-out: CLint in vitro), in data set [3] (read-out: CLint in vitro) and in data set [4] (read-out: CLint in vitro) were 1630 µL/min/1e6 cells, 656 µL/min/1e6 cells and 51.9 µL/min/1e6 cells, respectively. For the same molecule, the “AUC0-tlast” value in data set [5] is recorded as 416 ng⋅h/mL. Moreover, the Cmax in data set [5] is reported as 154 ng/mL. In addition, the tolerability entry in data set [6] is recorded as “well tolerated”.

These data come from paper PMC3006138, “Fexinidazole – A New Oral Nitroimidazole Drug Candidate Entering Clinical Development for the Treatment of Sleeping Sickness” (PLoS Neglected Tropical Diseases, 2010).
